The text below walks through data of patent US7387779B2, “Anti-angiogenic proteins and fragments and methods of use thereof” (Beth Israel Deaconess Medical Center, priority 1998, dated 2008).

The subject of experiment [1] is Caspase-3 in C-PAE cells. The experiment is described as follows: Caspase-3 assay. The experiment is classed as cell-based, bovine. Here is the method: Tumstatin also altered cell morphology of C-PAE cells as monitored by phase contrast microscopy. After treating cells with 20 μg/ml of Tumstatin in the presence of 10% FCS for 24 hours on fibronectin-coated plates, the typical morphological features of apoptotic cells, membrane blebbing, cytoplasmic shrinkage, and chromatin condensation could be observed. […] Caspase-3 assay: Caspase-3 (CPP32) is an intracellular protease activated at the early stage of apoptosis, and initiates cellular breakdown by degrading structural and DNA repair proteins (Casciola-Rosen, L. et al., 1996, J. Exp. Med. 183:1957-64; Salvesen, G. S. et al., 1997, Cell 91:443-46). The protease activity of Caspase-3 was measured spectrophotometrically by detection of the chromophore (p-nitroanilide) cleaved from the labeled substrate (DEVD-pNA). C-PAE cells or PC-3 cells (0.5×10^6 per well) were plated onto a 6-well plate precoated with fibronectin (10 μg/ml) in DMEM supplemented with 10% FCS, and incubated overnight. The next day, the medium was replaced with DMEM containing 2% FCS and then incubated overnight at 37° C. Then cells were then stimulated with bFGF (3 ng/ml) in DMEM supplemented with 2% FCS, and also containing either TNF-α (80 ng/ml, positive control) or Tumstatin (10 μg/ml), and incubated for 24 hours. Controls received PBS buffer. After 24 hours, the supernatant cells were collected, and attached cells were trypsinized and combined with the supernatant cells. Cells were counted and resuspended in cell lysis buffer (Clontech) at a concentration of 4×10^7 cells/ml. The rest of the protocol followed the manufacturer's instructions (Clontech). A specific inhibitor of Caspase-3, DEVD-fmk (Asp-Glu-Val-Asp-fluoromethyl ketone) was used to confirm the specificity of the assay. The absorbance was measured in a microplate reader (Bio-Rad, Hercules, Calif., USA) at 405 nm. The assay was repeated three times for each cell type.
Apoptosis was also evaluated by measuring Caspase-3 activity as described in Example 27, above. The results are shown in FIG. 35, which is a histogram showing Caspase-3 activity as a measure of absorbance at OD405 (y-axis) of C-PAE cells treated (x-axis) with 5 μg/ml Tum-1, Tum-2, Tum-3 or Tum-4, or 80 ng/ml TNF-α or PBS buffer (control).
Caspase-3 activity was also assayed as described above. DEVD-fmk, a specific caspase-3 inhibitor, was used as an internal control to show specificity of Tumstatin-44-131. TNF-α (80 ng/ml) was used as a positive control. The experiments were repeated three times.
The protease activity of Caspase-3 in cells treated with T3 peptide was measured spectrophotometrically by detection of the chromophore (p-nitroanilide) cleaved from the labeled substrate (DEVD-pNA). […] In PC-3 nonendothelial cells, there was no difference in Caspase-3 activity between control treatments and T3 peptide-treated cells.

Experiment [2] deals with PC3 tumor xenografts. The experiment is described as follows: PC3 human prostate tumor xenograft (Example 59). The settings on record: 3 weeks; for Final Tumor Weight (V/Vo) ± SEM: control 1070.0 ± 132.5. The format is in vivo, nude NCRNU mice. The source says: (§1) For tests involving the MDAMB-435 model, female nude NCRNU mice, 5-6 weeks old, weighing approximately 20 grams, were implanted with 2×10^6 MDAMB-435 cells into the subaxillary mammary fat pad. For tests involving the PC3 model, male nude NCRNU mice, 5-6 weeks old, weighing approximately 25 g were implanted with 2×10^6 PC3 cells into the dorsal subcutis. When the tumors were 100 mm^3 (for the MDAMB-435 model), or 60 mm^3 (for the PC3 model), the animals were pair-matched into treatment and control groups.
(§2) Each group contained 6-7 tumored mice, each of which was ear-tagged and followed individually throughout the experiment. Initial doses of peptide or vehicle control were given on the day of pair-matching (Day 0), and were administered daily via intraperitoneal (i.p.) injection at doses indicated. Mice were weighed weekly, and tumor measurements were taken by calipers weekly, starting on Day 0. These tumor measurements were converted to tumor volume by a well-known formula, (V=W^2×L/2) and mean tumor volumes were plotted against time. Mice were euthenized at the end of the treatment period. Upon termination, the mice were weighed, sacrificed and their tumors were excised. The mean tumor weight per group was calculated, and the mean treated tumor volume/control tumor volume×100 was subtracted from 100% to give the tumor growth inhibition (TGI) for each group.
(In general: Xenograft models place foreign cells or tissue in a host animal.)

Experiment [3] has as its system MDAMB-435 tumor xenografts. In words: MDAMB-435 human breast tumor xenograft (Example 59). As to conditions: 3 weeks; for Final Tumor Weight (V/Vo) ± SEM: control 468.5 ± 48.06. The experiment is classed as in vivo, nude NCRNU mice.
Excerpt: as §1, §2

Experiment [4] has as its system PC3 tumor xenografts. The experiment is described as follows: PC3 human prostate tumor xenograft (Example 58). As to conditions: 5.0 mg/kg i.p. daily, 3 weeks; for Final Tumor Weight (V/Vo) ± SEM: T7 vehicle 5.626 ± 0.38, T8 vehicle 6.278 ± 1.483. The experiment is classed as in vivo, nude NCRNU mice. Here is the method: Male nude NCRNU mice, 5-6 weeks old, weighing approximately 25 grams, 6 were implanted with 2×10^6 PC3 cells into the dorsal subcutis. When the tumors were 60 mm^3, the animals were pair-matched into treatment and control groups. Each group contained 6-7 tumored mice, each of which was ear-tagged and followed individually throughout the experiment. Initial doses of peptide or vehicle control were given on the day of pair-matching (Day 0), and were administered via intraperitoneal (i.p.) injection at doses indicated. Mice were weighed weekly, and tumor measurements were taken by calipers weekly. These tumor measurements were converted to tumor volume by a well-known formula, (V=W^2×L/2), and mean tumor volumes were plotted against time. Mice were euthenized at the end of the treatment period. Upon termination, the mice were weighed, sacrificed and their tumors were excised. The mean tumor weight per group was calculated, and the value of mean treated tumor volume or volume ratio/mean control tumor volume or volume ratio×100 was subtracted from 100% to give the tumor growth inhibition (TG1) for each group. All groups received injections I.P. daily, except for two T8-treated groups, which were treated twice per week and once a week, respectively.

Experiment [5] deals with C-PAE cells. In words: Endothelial cell proliferation, methylene blue staining. The format is cell-based, bovine. As for the experimental part: A methylene blue staining test was also done. 3,100 cells were added to each well and treated as above, and cells were then counted using the method of Oliver et al. (Oliver, M. H. et al., 1989, J. Cell. Science 92:513-18). All wells were washed one time with […] of 1×PBS and the cells were fixed by adding […] of 10% formalin in neutral-buffered saline (Sigma Chemical Co., St. Louis, Mo., USA) for 30 minutes at room temperature. After formalin removal cells were stained with a solution of 1% methylene blue (Sigma Chemical Co.) in 0.01 M borate buffer (pH 8.5) for 30 minutes at room temperature. After removal of staining solution, the wells were washed 5 times with […] of 0.01 M borate buffer (pH 8.5). Methylene blue was extracted from the cells with […] of 0.1N HCi/ethanol (1:1 mixture) for 1 hour at room temperature. The amount of methylene blue staining was measured on a microplate reader (BioRad, Hercules, Calif., USA) using light absorbance at 655 nm wavelength.
In the methylene-blue staining method, 7000 cells were plated into each well of a 96-well plate, and treated as described above. Cells were then counted using the method of Oliver et al. (1989, J. Cell. Sci. 92:513-8). After 48 hours of treatment, all wells were washed with 100 μl of PBS, and the cells fixed with 10% formalin in neutral-buffered saline (Sigma Chemical Co., St. Louis, Mo., USA). The cells were then stained with 1% methylene blue (Sigma) in 0.01M borate buffer, pH 8.5. Wells were washed with 0.01M borate buffer, and the methylene blue extracted from the cells with 0.1N HCl/ethanol, and the absorbance measured in a microplate reader (Bio-Rad, Hercules, Calif., USA) at 655 nm. Polymyxin B (Sigma) at a final concentration of 5 μg/ml was used to inactivate endotoxin (Liu, S. et al., 1997, Clin. Biochem. 30:455-63).
Proliferation of endothelial cells (C-PAE cells) and WM-164 melanoma cells was assayed by methylene blue staining, as described above in Examples 25 and 34. The results are shown in FIGS. 33A and 33B, which are a pair of graphs showing the effect of increasing concentration (x-axis) of Tumstatin, Tum-1, Tum-2, Tum-3 and Tum-4 on the relative number (y-axis) of C-PAE cells (FIG. 33A) and WM-164 cells (FIG. 33B). […] Tum-4, however, did have anti-proliferative activity in this cell line. […] Only Tum-4 inhibited WM-164 melanoma cells.
For the proliferation assay, Canstatin, Can-1 and Can-2 soluble proteins (0.1-20.0 μg/ml) were added to the growth medium of proliferating C-PAE cells, which were stimulated with 10% FBS in DMEM, in addition to 5 ng/ml bFGF and 3 ng/ml VEGF. The results are shown in FIG. 40, which is a graph showing the effect of increasing concentrations of Canstatin (♦), Can-1 (▪) and Can-2 (▴) (x-axis) on the relative cell number (y-axis) of C-PAE cells. Each concentration of each protein was tested in quadruplicate. Bovine serum albumin (BSA) was used as a control treatment. Polymyxin B was used to control for endotoxin interference, and no differences were found between assays run with and without polymyxin B added to the medium. Cells were allowed to proliferate for 48 hours, and were then fixed, stained and the density read with a Bio-Rad plate reader (Bio-Rad, Hercules, Calif., USA). Canstatin and Can-1 both caused dose-dependent decreases in the percent cell number, and both reduced the number of cells by 80% at concentrations of 5 μg/ml and higher.
An endothelial cell proliferation assay was used to compare the activity of Tumstatin and some of the deletion mutants. Recombinant Tumstatin (28 kDa), Tumstatin-44-131 (12 kDa) and T3 peptide were used in a methylene blue proliferation assay in equimolar concentrations.

Turning to `CC(C)[C@H](NC(=O)[C@H](CCC(=O)O)NC(=O)[C@@H](N)CC(=O)O)C(=O)N[C@@H](CC(=O)O)C(=O)CF` [DEVD-fmk, Asp-Glu-Val-Asp-fluoromethyl ketone, reference compound], the “effect of specific Caspase-3 inhibitor on protease activity” value in experiment [1] is given as “decreased the protease activity to baseline”.

For “KQRFTTMPFLFDNVNDVDNFASRNDYS (P2 (amino acids 68-94 of SEQ ID NO10; lysine has been substituted for the leucine residue at position 68 of the full-length Tumstatin molecule, and aspartic acid has been substituted for the cysteine residues at positions 79 and 85))”, the “% Tumor growth inhibition” value came to 31.6% in experiment [2] (1.0 mg/kg i.p. daily), 15.9% in experiment [2] (5.0 mg/kg i.p. daily) and 26.4% in experiment [3] (1.0 mg/kg i.p. daily). Moreover, the “Final Tumor Weight (V/Vo) ± SEM” value came to 732.4 ± 85.96 in experiment [2] (1.0 mg/kg i.p. daily), 899.7 ± 60.25 in experiment [2] (5.0 mg/kg i.p. daily), 344.7 ± 34.20 in experiment [3] (1.0 mg/kg i.p. daily) and 380.5 ± 25.91 in experiment [3] (5.0 mg/kg i.p. daily).

Take “KQRFTTMPFLFSNVNDVSNFASRNDYS (T8-3 (amino acids 68-94 of SEQ ID NO10; lysine has been substituted for the leucine residue at position 68 of the full-length Tumstatin molecule, and serine has been substituted for the cysteine residues at positions 79 and 85))”: the “% Tumor growth inhibition” value in experiment [2] (1.0 mg/kg i.p. daily) was determined as 28.5%; in experiment [2] (5.0 mg/kg i.p. daily), 35.4%; in experiment [3] (5.0 mg/kg i.p. daily) it was 41.9%. Moreover, the “Final Tumor Weight (V/Vo) ± SEM” value was found to be 765.1 ± 133.6 in experiment [2] (1.0 mg/kg i.p. daily), 691.5 ± 130.8 in experiment [2] (5.0 mg/kg i.p. daily), 370.1 ± 68.17 in experiment [3] (1.0 mg/kg i.p. daily) and 272.4 ± 34.86 in experiment [3] (5.0 mg/kg i.p. daily).

Take “TFNCVKNYQRLDFTSRFVMDSCANFPN (Scrambled peptide SP2) [reference compound]”: the “% Tumor growth inhibition” value in experiment [4] was 18.7%; in experiment [3] (5.0 mg/kg i.p. daily) it was “no tumor growth inhibition”. Moreover, the “Final Tumor Weight (V/Vo) ± SEM” value in experiment [4] amounted to 5.097 ± 0.185; in experiment [2] (5.0 mg/kg i.p. daily), 931.0 ± 112.3; in experiment [3] (5.0 mg/kg i.p. daily) it was 527.2 ± 57.89.

Regarding TMPFLFCNVNDVCNFASRNDYSYWL [T7], in experiment [4], the “% Tumor growth inhibition” value is on record as 66.8% and the “Final Tumor Weight (V/Vo) ± SEM” value is reported as 1.868 ± 0755. Moreover, the EC50 in experiment [5] (equimolar comparison, read-out: ED50, anti-proliferative effect) turned out to be 1000 nM.

B1: Tum-3: residues 133 to 244 of Tumstatin (SEQ ID NO:24) (protein)
chain: AVHSQTTDIPPCPHGWISLWKGFSFIMFTSAGSEGTGQALASPGSCLEEFRASPFLECHGRGTCNYYSNSYSFWLASLNPERMFRKPIPSTVKAGELEKIISRCQVCMKKRH
modifications: Tum-3 (amino acids 133-244 of SEQ ID NO10)
For the molecule B1, the “inhibition of proliferation of C-PAE cells” value in experiment [5] (15 μg/ml) is listed as “did not inhibit”. The “Relative Cell No. (%) C-PAE” value in experiment [5] (20% FCS, 15 μg/ml recombinant protein) stood at 94.9 ± 3.1%. Further, in experiment [1] (5 μg/ml), the “effect on Caspase-3 activity” value was “did not”.
